Experimental data from US12187707B2, “Pharmaceutical formulations of N-(2-(2-(dimethylamino)ethoxy)-4-methoxy-5-((4-(1-methyl-1H-indol-3-yl)pyrimidin-2-yl)amino)phenyl)acrylaminde and salts thereof” (Beta Pharma, Inc., priority 2017, dated 2025).

Experiment: Stability testing of Formulation 1 and 1·Ms by HPLC (assay and total related substances) after storage in a stability chamber
Format: physicochemical
Procedure: Microcrystalline cellulose (392.43 mg), dicalcium phosphate (735.35 mg), sodium starch glycolate (45.09 mg), silicon dioxide (15.03 mg), and magnesium stearate (15.03 mg) were combined and blended with a vortex mixer in the amounts and proportions indicated in Table 1. The resulting mixture was filtered through a #35 mesh sieve to give Mixture A. A 20.05 mg portion of Mixture A was combined with 5.0 mg of 1·Ms (C27H30N6O3·1.06 CH3SO3H, purity=100%) of crystalline Form 2A in a 40 mL glass vial and blended thoroughly with a vortex mixer to afford Formulation 1, which has a theoretical composition as calculated in Table 1.
All samples were stored in a stability chamber at temperatures of −20° C., 50° C., and at 40° C./75% relative humidity for 2-week and 4-week periods and analyzed for stability. Closed-dish samples were capped and sealed with Parafilm. Open-dish samples were covered by aluminum foil that was pierced with a pinhole.
After reaching room temperature, each sample was added to a 40 mL sample vial containing 10 mL of diluent (0.05% TFA in H2O:MeCN=1:1 v/v) and sonicated for 10 minutes with occasional shaking. All samples were centrifuged at 14,000 rpm for 10 minutes and the supernatant was analyzed by HPLC. The working standard solution (5 mg of 1 Ms in 10 mL of diluent) was used as a reference. Results for Formulation 1 are shown in Table 3, in which purity is measured as percent (%) versus total related substances (TRS). As shown in […] and FIGS. 7 to 9, Formulation 1 was stable over an extended period.

[1] = 40° C. @ 75% relative humidity, 2 weeks
[2] = 40° C. @ 75% relative humidity, 4 weeks

Assay [1]: 101.1%
TRS (total related substances) [1]: 0.00%
Assay [2]: 99.3%
TRS (total related substances) [2]: 0.00%
Assay (50° C., 2 weeks): 101.4%
TRS (total related substances) (50° C., 2 weeks): 0.00%
Assay (50° C., 4 weeks): 99.9%
TRS (total related substances) (50° C., 4 weeks): 0.00%
Assay (Initial): 100.2%
TRS (total related substances) (Initial): 0.00%
Structure (SMILES): C=CC(=O)Nc1cc(Nc2nccc(-c3cn(C)c4ccccc34)n2)c(OC)cc1OCCN(C)C [1 · Ms, N-(2-(2-(Dimethylamino)ethoxy)-4-methoxy-5-((4-(1-methyl-1H-indol-3-yl)pyrimidin-2-yl)amino)phenyl)acrylamide methanesulfonate (1:1)]
